Results on two compounds are retold here after ChEMBL document CHEMBL1145395, “De novo design of selective antibiotic peptides by incorporation of unnatural amino acids” (J Med Chem, 2007).

In data set [1] the test system is Staphylococcus aureus. Description: Antibacterial activity against methicillin/gentamicin/tetracycline resistant Staphylococcus aureus ATCC 33592 at 100 uM. The data set is classed as functional, organism-based.
In data set [2] the test system is Bacillus subtilis. Briefly: Antibacterial activity against Bacillus subtilis ATCC 43223 at 100 uM. It counts as functional, organism-based.
For data set [3], the system named is Mus musculus. Briefly: Acute toxicity in mouse at 125 mg/kg, ip after 6 days. Further details: dose 125 mg/kg, route intraperitoneal. It counts as organism-based. As to conditions: in vivo, 144 h.
A further data set has as its system Salmonella typhimurium. Description: Antibacterial activity against Salmonella Typhimurium ATCC 13311. The data set is classed as functional, Salmonella enterica subsp. enterica serovar Typhimurium. As to conditions: Salmonella enterica.
The subject of data set [4] is Mus musculus. Briefly: Acute toxicity in mouse at 5 mg/kg, ip after 6 days. The data set is classed as organism-based. Further details: dose 5 mg/kg, route intraperitoneal. As to conditions: in vivo, 144 h.
In data set [5] the test system is Mus musculus. Briefly: Acute toxicity in mouse at 25 mg/kg, ip after 6 days. The data set is classed as organism-based. Further details: dose 25 mg/kg, route intraperitoneal. The conditions noted are these: in vivo, 144 h.
The nature of data set [6]: Toxicity to mouse RBC assessed as hemolytic activity at 100 uM. It counts as cell-based, Erythrocyte. The conditions noted are these: red blood cells, read-out: Activity.
In data set [7] the test system is Bacillus subtilis. Briefly: Antibacterial activity against Bacillus subtilis ATCC 43223. The data set is classed as functional.
The next data set relates to Mycobacterium. Description: Antibacterial activity against Mycobacterium ranae ATCC 110. It counts as functional.
Data set [8] relates to Staphylococcus aureus. Briefly: Antibacterial activity against methicillin/gentamicin/tetracycline resistant Staphylococcus aureus ATCC 33592. It counts as functional.
The nature of data set [9]: Toxicity to mouse RBC assessed as hemolytic activity at 25 uM. The data set is classed as cell-based, Erythrocyte. The conditions noted are these: red blood cells, read-out: Activity.

Structures are written as SMILES. ≈ marks a conversion by molar mass, not a printed value. Calls of active or inactive are those of the source. No cut-off for these calls is given here. Non-standard residues stand in square brackets, D forms with d. Residues, ends and D or L forms follow the SMILES beside them. ξ: configuration not given here. Pro(3ξ,4ξ-(CH2)4) = O=C(O)[C@H]1NCC2CCCCC21; Tic = O=C(O)[C@@H]1Cc2ccccc2CN1; dTic = O=C(O)[C@H]1Cc2ccccc2CN1; βAla = NCCC(=O)O

On to `CC[C@H](C)[C@H](NC(=O)[C@H](CCC(=O)O)NC(=O)CNC(=O)[C@@H](NC(=O)[C@H](Cc1ccccc1)NC(=O)[C@H](C)NC(=O)[C@H](CCCCN)NC(=O)CNC(=O)[C@H](Cc1ccccc1)NC(=O)[C@H](CCCCN)NC(=O)CNC(=O)[C@H](C)NC(=O)[C@H](CO)NC(=O)[C@H](Cc1cnc[nH]1)NC(=O)[C@H](CC(C)C)NC(=O)[C@H](Cc1ccccc1)NC(=O)[C@H](CCCCN)NC(=O)CNC(=O)[C@H](NC(=O)CN)[C@@H](C)CC)C(C)C)C(=O)N[C@@H](CCSC)C(=O)N[C@@H](CCCCN)C(=O)N[C@@H](CO)C(N)=O`, for which the outcome in the data set on Staphylococcus aureus [1] and in the data set with Bacillus subtilis [2] was inactive.

In the case of `CC(=O)NCCC(=O)N[C@@H](Cc1ccccc1)C(=O)N1Cc2ccccc2C[C@H]1C(=O)N1CC2CCCCC2[C@H]1C(=O)NCCC(=O)N[C@@H](CCCCN)C(=O)N1Cc2ccccc2C[C@H]1C(=O)N1CC2CCCCC2[C@H]1C(=O)NCCC(=O)N[C@@H](Cc1ccccc1)C(=O)N1Cc2ccccc2C[C@@H]1C(=O)N1CC2CCCCC2[C@H]1C(=O)NCCC(=O)N[C@@H](CCCCN)C(=O)N1Cc2ccccc2C[C@H]1C(=O)N[C@@H](CCCCN)C(=O)N[C@@H](CCCCN)C(=O)N[C@@H](CCCCN)C(=O)N[C@@H](CCCCN)C(N)=O` (stereo partly specified) (Ac-[βAla]F[Tic][Pro(3ξ,4ξ-(CH2)4)][βAla]K[Tic][Pro(3ξ,4ξ-(CH2)4)][βAla]F[dTic][Pro(3ξ,4ξ-(CH2)4)][βAla]K[Tic]KKKK-NH2), the Activity result in the data set on Mus musculus [3], with Mus musculus [4] and in the data set on Mus musculus [5] was “Toxic” each time. In addition, the MIC (as a rule, the lowest concentration found to suppress growth) with Salmonella typhimurium came out at 10 µM (≈ 25 µg/mL); against Bacillus subtilis [7], 1 µM (≈ 2.5 µg/mL); in the data set with Mycobacterium, 1 µM (≈ 2.5 µg/mL); against Staphylococcus aureus [8], 10 µM (≈ 25 µg/mL). The hemolysis at 100 µM in [6] was 24.4%. The hemolysis at 25 µM in [9] is 7.4%.
